System: HSV-1
Test: Plaque reduction of HSV-1 on Vero cell monolayer
Type: cell-based, herpes simplex virus type 1 (MacIntyre strain)
Conditions: valacyclovir 16 μM, 20(S)-Rg3 50 μM, about 50 PFU/well, 48 hours; for Number of Plaques: ± standard error
Procedure: Viruses and Quantification. Herpes simplex virus type 1 (HSV-1, MacIntyre strain, ATCC, VR-539) or herpes simplex virus type 2 (HSV-2, ATCC, VR-734) were used in these studies. Virus titer was determined by plaque assay. Briefly, following 2 hour-adsorption of various virus dilutions onto a Vero cell monolayer in a 24-well plate, the medium was removed and cells were overlaid with 1.5% carboxymethylcellulose (Sigma Chemical Company, St. Louis, Mo.) and incubated 48 hours at 37° C. with 5% CO2. After incubation, cells were fixed with methanol, stained with Giemsa (Sigma Chemical Company, St. Louis, Mo.) and plaques were counted. Each virus dilution was prepared in quadruplicate.
The plaque assay procedure also was used to evaluate the percent plaque reduction; the only procedural change was that a constant virus concentration was used (50 plaque forming units (PFU)/well). Plaque reduction was measured by comparing the control (virus only), with valacyclovir (16 μM) with virus or 20(S)-Rg3 (50 μM) with virus. Sample wells were evaluated in quadruplicate. Following the 2 hour-virus adsorption, the methylcellulose-medium containing the same concentrations of valacyclovir or Rg3 was added to the appropriate wells. After 48 hours, plaques were fixed, stained and counted.

In the case of `CC(C)=CCC[C@](C)(O)C1CC[C@]2(C)C1[C@H](O)CC1[C@@]3(C)CC[C@H](O[C@@H]4OC(CO)[C@@H](O)[C@@H](O)C4O[C@@H]4OC(CO)[C@@H](O)[C@@H](O)C4O)C(C)(C)C3CC[C@]12C` (stereo partly drawn) [20(S)-Rg3, 20(S)-ginsenoside-Rg3], the “Percent Reduction of plaques compared to the control” value is reported as 97.3%, the “Number of Plaques” value is reported as 1.5 ± 0.3 and the “Number of Plaques” value (listed as Rg3) is reported as 1.5±0.3.

Source: US11980648B2, “Compositions including ginsenoside 20(S)-Rg3 and methods of using ginsenoside 20(S)-Rg3 to inhibit alpha herpesvirus” (MIDDLE TENNESSEE STATE UNIVERSITY, priority 2020, dated 2024)
